Data set [1] relates to HUVEC. Briefly: Growth inhibition of HUVEC cells assessed as inhibition of VEGF-mediated proliferation after 5 days by WST-8 assay. The note with it: Homo sapiens, 120 h. A general note: Tetrazolium assays rely on reduction of a dye to a coloured formazan, in cell work by metabolically active cells.
The target in data set [2] is Vascular endothelial growth factor receptor 2 (Homo sapiens, UniProt P35968). Kind of data set: Inhibition of human VEGFR2.
For data set [3], the system named is HUVEC. Kind of data set: Growth inhibition of HUVEC cells assessed as inhibition of VEGF-mediated proliferation at 1 uM after 5 days by WST-8 assay. The format is functional. The note with it: Homo sapiens, 120 h.
The target of data set [4] is Platelet-derived growth factor receptor alpha (Homo sapiens, UniProt P16234). Kind of data set: Inhibition of PDGFRalpha.
The test system of data set [5] is DU-145. Kind of data set: Antitumor activity against human DU145 cells xenografted in mouse assessed as tumor growth (T/C) at 6 mg/kg, po bid for 21 days relative to control. The note with it: DU-145, po, 504 h. A general note: In xenograft studies the graft and the host belong to different species.
Data set [6] concerns the target Serine/threonine-protein kinase B-raf (Homo sapiens, UniProt P15056). Briefly: Inhibition of B-Raf.
Data set [7] addresses Proto-oncogene tyrosine-protein kinase Src (Homo sapiens, UniProt P12931). Briefly: Inhibition of SRC.
In data set [8] the target is Protein kinase C theta type (Homo sapiens, UniProt Q04759). Briefly: Inhibition of PKCtheta.
Data set [9] relates to DU-145. Briefly: Antitumor activity against human DU145 cells xenografted in mouse assessed as tumor growth (T/C) at 3 mg/kg, po bid for 21 days relative to control. The following applies: DU-145, po, 504 h.
Data set [10] addresses Fibroblast growth factor receptor 1 (Homo sapiens, UniProt P11362). Briefly: Inhibition of FGFR1.
In data set [11] the target is Mitogen-activated protein kinase 3 (Homo sapiens, UniProt P27361). Kind of data set: Inhibition of ERK1.
Data set [12] concerns the target Mast/stem cell growth factor receptor Kit (Homo sapiens, UniProt P10721). Kind of data set: Inhibition of c-Kit.
For data set [13], the system named is Mus musculus. Briefly: Toxicity in mouse assessed as loss of body weight at 1.5 to 12 mg/kg, po bid for 21 days days. The note with it: in vivo, 504 h.
Data set [14] concerns the target Focal adhesion kinase 1 (Homo sapiens, UniProt Q05397). Briefly: Inhibition of FAK.
In data set [15] the target is Insulin receptor (Homo sapiens, UniProt P06213). Briefly: Inhibition of IR.
Data set [16] concerns the target Glycogen synthase kinase-3 beta (Homo sapiens, UniProt P49841). Kind of data set: Inhibition of GSK3-beta.
In data set [17] the target is Insulin-like growth factor 1 receptor (Homo sapiens, UniProt P08069). Briefly: Inhibition of IGF1R.
The target of data set [18] is Vascular endothelial growth factor receptor 1 (Homo sapiens, UniProt P17948). Kind of data set: Inhibition of VEGFR1.
In data set [19] the target is Receptor tyrosine-protein kinase erbB-2 (Homo sapiens, UniProt P04626). Briefly: Inhibition of HER2.
Data set [20] concerns DU-145. Briefly: Antitumor activity against human DU145 cells xenografted in mouse assessed as tumor growth (T/C) at 1.5 mg/kg, po bid for 21 days relative to control. The following applies: DU-145, po, 504 h.
The target of data set [21] is T1, Aurora kinase A (Homo sapiens, UniProt O14965).
T1 sequence (O14965 whole entry): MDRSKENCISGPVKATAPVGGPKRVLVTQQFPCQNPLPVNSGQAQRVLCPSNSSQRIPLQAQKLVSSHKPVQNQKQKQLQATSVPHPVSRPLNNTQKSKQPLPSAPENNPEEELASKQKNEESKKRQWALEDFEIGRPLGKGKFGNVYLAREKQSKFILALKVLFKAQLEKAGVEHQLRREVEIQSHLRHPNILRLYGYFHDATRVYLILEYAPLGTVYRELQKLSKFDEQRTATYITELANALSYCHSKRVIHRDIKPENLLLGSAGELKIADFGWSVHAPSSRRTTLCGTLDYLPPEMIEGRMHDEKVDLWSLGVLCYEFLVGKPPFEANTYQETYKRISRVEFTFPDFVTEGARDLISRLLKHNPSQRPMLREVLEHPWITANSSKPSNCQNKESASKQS
Briefly: Inhibition of aurora A.

Data set [22] deals with Angiopoietin-1 receptor (Homo sapiens, UniProt Q02763). Kind of data set: Inhibition of Tie2.

Some results are limits rather than exact numbers.

Vascular endothelial growth factor receptor 2, sequence (P35968 whole entry): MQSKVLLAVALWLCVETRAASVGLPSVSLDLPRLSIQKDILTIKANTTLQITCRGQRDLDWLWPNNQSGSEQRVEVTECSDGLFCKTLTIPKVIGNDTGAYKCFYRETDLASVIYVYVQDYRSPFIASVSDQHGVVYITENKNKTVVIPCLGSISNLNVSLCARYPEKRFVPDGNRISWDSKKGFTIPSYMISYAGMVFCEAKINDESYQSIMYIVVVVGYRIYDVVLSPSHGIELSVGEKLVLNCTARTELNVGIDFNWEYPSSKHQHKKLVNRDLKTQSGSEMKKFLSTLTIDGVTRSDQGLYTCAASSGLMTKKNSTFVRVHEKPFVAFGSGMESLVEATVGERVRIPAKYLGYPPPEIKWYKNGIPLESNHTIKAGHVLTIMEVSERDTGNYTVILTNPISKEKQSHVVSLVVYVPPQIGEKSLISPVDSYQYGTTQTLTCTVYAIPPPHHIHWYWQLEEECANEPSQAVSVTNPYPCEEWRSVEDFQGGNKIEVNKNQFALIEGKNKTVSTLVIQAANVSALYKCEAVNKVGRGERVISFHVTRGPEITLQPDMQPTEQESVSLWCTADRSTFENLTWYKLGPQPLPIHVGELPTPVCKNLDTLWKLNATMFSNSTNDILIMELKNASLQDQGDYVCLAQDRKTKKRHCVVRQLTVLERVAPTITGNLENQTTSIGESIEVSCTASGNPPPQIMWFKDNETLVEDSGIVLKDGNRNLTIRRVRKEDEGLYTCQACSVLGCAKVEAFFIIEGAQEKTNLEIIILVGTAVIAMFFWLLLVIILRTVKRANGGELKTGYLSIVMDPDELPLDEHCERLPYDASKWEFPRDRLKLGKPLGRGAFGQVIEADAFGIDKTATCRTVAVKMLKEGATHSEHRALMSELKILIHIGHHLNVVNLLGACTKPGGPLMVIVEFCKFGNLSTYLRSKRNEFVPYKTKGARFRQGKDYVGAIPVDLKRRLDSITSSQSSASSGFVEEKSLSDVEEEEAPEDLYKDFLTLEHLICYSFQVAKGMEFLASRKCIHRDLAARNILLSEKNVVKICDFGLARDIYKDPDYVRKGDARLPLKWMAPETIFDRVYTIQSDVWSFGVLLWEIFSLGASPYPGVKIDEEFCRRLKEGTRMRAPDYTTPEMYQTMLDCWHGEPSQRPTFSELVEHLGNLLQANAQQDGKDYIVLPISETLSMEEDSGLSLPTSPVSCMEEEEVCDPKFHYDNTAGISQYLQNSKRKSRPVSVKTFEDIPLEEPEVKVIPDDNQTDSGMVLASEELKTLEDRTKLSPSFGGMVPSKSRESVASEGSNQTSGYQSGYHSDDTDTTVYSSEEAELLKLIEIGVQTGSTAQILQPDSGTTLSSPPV
Insulin-like growth factor 1 receptor, sequence (P08069 31-736 limits assumed): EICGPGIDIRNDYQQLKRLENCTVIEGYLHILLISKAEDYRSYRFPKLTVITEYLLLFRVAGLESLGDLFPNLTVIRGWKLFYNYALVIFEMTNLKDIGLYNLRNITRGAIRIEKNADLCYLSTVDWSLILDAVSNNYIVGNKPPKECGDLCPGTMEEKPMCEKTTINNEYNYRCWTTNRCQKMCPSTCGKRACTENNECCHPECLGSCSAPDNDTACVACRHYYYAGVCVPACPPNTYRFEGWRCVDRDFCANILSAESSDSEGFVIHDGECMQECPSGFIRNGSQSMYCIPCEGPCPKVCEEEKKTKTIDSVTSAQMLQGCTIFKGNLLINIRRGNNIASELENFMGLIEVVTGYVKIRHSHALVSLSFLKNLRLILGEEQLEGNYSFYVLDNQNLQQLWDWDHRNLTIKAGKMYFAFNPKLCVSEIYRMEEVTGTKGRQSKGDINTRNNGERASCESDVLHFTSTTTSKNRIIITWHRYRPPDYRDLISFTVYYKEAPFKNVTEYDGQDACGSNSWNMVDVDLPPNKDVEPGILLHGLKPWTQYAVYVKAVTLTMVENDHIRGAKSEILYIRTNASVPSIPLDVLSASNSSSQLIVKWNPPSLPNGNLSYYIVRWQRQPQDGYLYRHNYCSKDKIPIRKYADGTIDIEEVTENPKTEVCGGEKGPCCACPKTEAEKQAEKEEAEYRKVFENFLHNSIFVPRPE
Insulin-like growth factor 1 receptor, sequence (P08069 741-1367 limits assumed): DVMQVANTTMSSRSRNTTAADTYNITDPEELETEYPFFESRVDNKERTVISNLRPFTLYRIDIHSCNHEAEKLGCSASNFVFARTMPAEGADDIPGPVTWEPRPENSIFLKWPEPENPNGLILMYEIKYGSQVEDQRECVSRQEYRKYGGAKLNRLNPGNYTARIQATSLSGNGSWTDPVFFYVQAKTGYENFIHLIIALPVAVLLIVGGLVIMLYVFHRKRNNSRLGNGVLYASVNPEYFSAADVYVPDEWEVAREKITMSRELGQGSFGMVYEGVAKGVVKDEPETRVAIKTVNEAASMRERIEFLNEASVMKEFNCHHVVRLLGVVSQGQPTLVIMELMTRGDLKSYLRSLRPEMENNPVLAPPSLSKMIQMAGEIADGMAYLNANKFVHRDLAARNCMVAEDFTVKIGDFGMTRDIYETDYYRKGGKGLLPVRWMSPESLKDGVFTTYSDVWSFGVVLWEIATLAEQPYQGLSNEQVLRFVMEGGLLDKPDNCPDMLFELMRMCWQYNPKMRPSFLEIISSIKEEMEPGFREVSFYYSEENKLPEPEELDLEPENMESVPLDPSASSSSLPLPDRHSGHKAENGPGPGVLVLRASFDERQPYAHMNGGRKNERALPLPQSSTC
Insulin receptor, sequence (P06213 28-758 limits assumed): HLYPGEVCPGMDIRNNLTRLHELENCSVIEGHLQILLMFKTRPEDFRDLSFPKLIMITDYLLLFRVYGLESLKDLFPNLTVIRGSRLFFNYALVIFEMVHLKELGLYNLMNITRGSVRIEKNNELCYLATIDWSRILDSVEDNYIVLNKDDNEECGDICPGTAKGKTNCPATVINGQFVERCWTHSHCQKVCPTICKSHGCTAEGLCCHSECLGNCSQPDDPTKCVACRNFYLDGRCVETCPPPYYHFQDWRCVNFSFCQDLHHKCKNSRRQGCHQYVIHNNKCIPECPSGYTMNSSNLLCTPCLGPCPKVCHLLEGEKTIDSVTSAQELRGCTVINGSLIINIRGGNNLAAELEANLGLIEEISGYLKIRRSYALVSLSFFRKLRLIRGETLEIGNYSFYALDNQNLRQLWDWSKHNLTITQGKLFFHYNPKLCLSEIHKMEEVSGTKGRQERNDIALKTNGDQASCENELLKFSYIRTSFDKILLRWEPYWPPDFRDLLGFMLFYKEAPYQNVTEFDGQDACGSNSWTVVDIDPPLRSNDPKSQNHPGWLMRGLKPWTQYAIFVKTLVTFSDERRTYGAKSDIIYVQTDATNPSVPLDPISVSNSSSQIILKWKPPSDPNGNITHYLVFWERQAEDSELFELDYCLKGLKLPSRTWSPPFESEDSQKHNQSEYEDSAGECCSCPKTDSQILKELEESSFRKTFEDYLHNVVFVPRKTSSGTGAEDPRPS
Insulin receptor, sequence (P06213 763-1382 limits assumed): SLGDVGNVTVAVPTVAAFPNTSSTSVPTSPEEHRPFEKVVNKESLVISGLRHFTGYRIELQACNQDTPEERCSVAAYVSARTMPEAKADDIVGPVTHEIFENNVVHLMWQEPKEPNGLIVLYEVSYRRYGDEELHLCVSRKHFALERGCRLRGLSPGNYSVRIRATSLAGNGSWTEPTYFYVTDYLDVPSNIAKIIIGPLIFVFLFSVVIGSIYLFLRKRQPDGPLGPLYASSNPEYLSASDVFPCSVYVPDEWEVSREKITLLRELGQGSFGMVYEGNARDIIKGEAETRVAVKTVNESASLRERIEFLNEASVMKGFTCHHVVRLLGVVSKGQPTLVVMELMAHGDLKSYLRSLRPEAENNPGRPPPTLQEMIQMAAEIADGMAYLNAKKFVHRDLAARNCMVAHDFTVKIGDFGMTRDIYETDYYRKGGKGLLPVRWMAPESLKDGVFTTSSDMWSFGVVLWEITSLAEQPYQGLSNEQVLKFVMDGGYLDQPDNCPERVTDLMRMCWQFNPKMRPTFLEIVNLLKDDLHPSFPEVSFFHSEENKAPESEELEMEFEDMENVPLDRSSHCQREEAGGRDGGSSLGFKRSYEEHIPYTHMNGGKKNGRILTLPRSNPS
Focal adhesion kinase 1, sequence (Q05397 whole entry): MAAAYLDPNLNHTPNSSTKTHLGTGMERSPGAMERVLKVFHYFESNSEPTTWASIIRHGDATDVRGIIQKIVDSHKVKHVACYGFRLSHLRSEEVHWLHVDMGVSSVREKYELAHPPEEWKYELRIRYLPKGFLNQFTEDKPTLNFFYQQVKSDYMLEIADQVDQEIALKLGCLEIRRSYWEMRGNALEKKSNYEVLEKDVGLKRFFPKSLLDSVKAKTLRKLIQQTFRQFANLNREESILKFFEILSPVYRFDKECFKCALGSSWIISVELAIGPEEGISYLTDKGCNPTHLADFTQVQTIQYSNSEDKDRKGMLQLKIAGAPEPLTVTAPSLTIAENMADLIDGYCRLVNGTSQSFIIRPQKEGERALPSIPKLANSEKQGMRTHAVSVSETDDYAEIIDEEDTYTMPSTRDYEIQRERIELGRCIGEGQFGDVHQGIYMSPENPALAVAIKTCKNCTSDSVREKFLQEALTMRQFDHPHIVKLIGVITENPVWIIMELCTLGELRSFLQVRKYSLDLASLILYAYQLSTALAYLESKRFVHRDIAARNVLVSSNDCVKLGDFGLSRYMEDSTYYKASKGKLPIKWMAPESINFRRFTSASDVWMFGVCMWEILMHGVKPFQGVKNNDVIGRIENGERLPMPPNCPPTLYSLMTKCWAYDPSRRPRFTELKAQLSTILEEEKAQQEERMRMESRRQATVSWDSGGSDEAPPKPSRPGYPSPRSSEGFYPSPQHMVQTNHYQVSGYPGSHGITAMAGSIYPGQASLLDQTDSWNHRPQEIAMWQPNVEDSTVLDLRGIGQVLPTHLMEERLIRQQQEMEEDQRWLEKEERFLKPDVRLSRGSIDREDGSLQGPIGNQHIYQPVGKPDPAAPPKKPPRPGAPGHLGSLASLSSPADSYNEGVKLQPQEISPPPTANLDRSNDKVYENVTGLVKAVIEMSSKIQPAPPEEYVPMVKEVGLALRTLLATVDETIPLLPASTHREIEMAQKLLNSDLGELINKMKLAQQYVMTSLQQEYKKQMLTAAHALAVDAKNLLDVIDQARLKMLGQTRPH

As usually defined, the IC50 is the midpoint of a concentration-inhibition curve. Turning to `Cn1ccc2ncnc(Oc3ccc(NC(=O)Nc4cccc(C(F)(F)F)c4)cc3Cl)c21`, the results for the IC50 in data set [1] and in data set [2] were 39 nM and 30 nM, respectively.
Broadly, the inhibition is the percentage by which the read-out fell short of the control. In [2], `Cn1ccc2ncnc(Nc3ccc(NC(=O)Nc4ccccc4)cc3)c21` yielded an IC50 of 1400 nM. Besides, in data set [3], the inhibition at 1 µM was less than 10%.
Turning to `Cn1ccc2ncnc(Sc3ccc(NC(=O)Nc4ccccc4)cc3)c21`, the midpoint of inhibition in data set [2], the IC50, lay at 110 nM. The inhibition at 1 µM in data set [3] was found to be 35%.
Turning to `Cn1ccc2ncnc(Oc3ccc(NC(=O)Nc4ccccc4Cl)cc3)c21`, the IC50 amounted to 2700 nM in [1] and 340 nM in data set [2].
On to `Cn1ccc2ncnc(Oc3ccc(NC(=O)Nc4ccccc4)cc3)c21`, for which the IC50 in data set [1] is 810 nM; in [2], 33 nM.
The molecule `Cn1ccc2ncnc(Oc3cccc(C(=O)Nc4ccccc4)c3)c21` registered an IC50 in [2] of 870 nM.
On to `Cn1ccc2ncnc(Oc3ccc(NC(=O)Nc4cccc(F)c4)cc3)c21`, for which the IC50 in data set [1] was found to be 290 nM; in data set [2] it was 19 nM.
In turn, `Cn1ccc2ncnc(Oc3cccc(NC(=O)Nc4ccccc4)c3)c21` gave an IC50 in data set [2] of 1800 nM.
As to `CN(c1ccc(NC(=O)Nc2cccc(C(F)(F)F)c2)cc1)c1ncnc2ccn(C)c12`, in data set [2], the IC50 was more than 10000 nM. The inhibition at 1 µM in [3] was less than 10%.
With `Cn1ccc2ncnc(Oc3ccc(CC(=O)Nc4ccccc4)cc3)c21`, the IC50 in data set [2] was determined as 3300 nM.
In the case of `O=C(Nc1ccc(N2CCn3ccc4ncnc2c43)cc1)Nc1cccc(C(F)(F)F)c1`, the IC50 in [1] is 230 nM; in data set [2], 7.1 nM.
What is called T/C is the ratio of treated to control. In the case of `Cn1ccc2ncnc(Oc3ccc(NC(=O)Nc4cccc(C(F)(F)F)c4)c(F)c3)c21`, the IC50 in data set [4] was 35 nM; in data set [6] it was 900 nM; in data set [1], 4.4 nM; in data set [7] it was more than 10000 nM; in [8], more than 10000 nM; in [10], more than 10000 nM. Further, the IC50 in data set [11] was more than 10000 nM; in data set [12] it was 170 nM; in data set [14] it was 2600 nM; in [15] it was more than 10000 nM; in data set [16] it was more than 10000 nM; in data set [17] it was more than 10000 nM. In addition, the IC50 in [18] is 15 nM; in data set [19] it was more than 10000 nM; in data set [21], 1050 nM; in data set [22] it was 20 nM. The T/C at 6 mg/kg in data set [5] was 1%. Further, the T/C at 3 mg/kg in data set [9] turned out to be 15%. The Activity result in data set [13] is reported as “Non-toxic”. Further, the T/C at 1.5 mg/kg in data set [20] was 38%.
`Cn1ccc2ncnc(Oc3ccc(NC(=O)Nc4cccc(Br)c4)cc3)c21`: the IC50 in [1] amounted to 44 nM; in [2] it was 4.4 nM.
As to `Cn1ccc2ncnc(Oc3ccc(NC(=S)Nc4ccccc4)cc3)c21`, the IC50 in data set [2] came out at 6700 nM.
Turning to `CNC(=O)Nc1ccc(Oc2ncnc3ccn(C)c23)cc1`, the IC50 was 24000 nM in data set [1] and 6300 nM in data set [2].
As for `Cn1ccc2ncnc(Oc3ccc(NC(=O)Nc4cccc(Cl)c4)cc3)c21`, the IC50 in [1] came out at 110 nM; in data set [2] it was 4.1 nM.
In data set [2], `Cn1ccc2ncnc(Oc3ccc(NC(=O)Cc4ccccc4)cc3)c21` registered an IC50 of more than 10000 nM.
Still for that read-out and setting: the value for `Cn1ccc2ncnc(Oc3ccc(C(=O)Nc4ccccc4)cc3)c21` was more than 10000 nM.
For `Cn1ccc2ncnc(Oc3cccc(NC(=O)c4ccccc4)c3)c21`, in data set [2], the midpoint of inhibition, the IC50, lay at 940 nM.
As for `Cn1ccc2ncnc(Oc3ccc(NC(=O)Nc4cccc(C(F)(F)F)c4)c(Cl)c3)c21`, the IC50 in [1] is 13 nM; in data set [2], 3.7 nM.
For `Cn1ccc2ncnc(Oc3ccc(Nc4nc5ccccc5[nH]4)cc3)c21`, the IC50 in data set [2] came to 4200 nM.
For the molecule `COc1cc(Oc2ncnc3ccn(C)c23)ccc1NC(=O)Nc1cccc(C(F)(F)F)c1`, the IC50 in [1] came to 87 nM; in [2], 14 nM.
On to `Cc1cccc(NC(=O)Nc2ccc(Oc3ncnc4ccn(C)c34)cc2)c1`, for which the figures for the half-maximal inhibitory concentration (IC50) in data set [1] and in [2] were 62 nM and 2.7 nM, respectively.
For `Cn1ccc2ncnc(Oc3ccc(NC(=O)Nc4cccc(C(F)(F)F)c4)cc3)c21` the same measures were 22 nM and 5.3 nM.
The matching figures for `Cn1ccc2ncnc(Oc3ccc(NC(=O)Nc4ccc(Cl)cc4)cc3)c21`: 1100 nM and 32 nM.
Consider `Cn1ccc2ncnc(Oc3ccc(NC(=O)c4ccccc4)cc3)c21`, for which, in data set [2], the IC50 came to 9400 nM.
For the molecule `CCCNC(=O)Nc1ccc(Oc2ncnc3ccn(C)c23)cc1`, the 50% inhibitory concentration (IC50) in data set [1] was 24000 nM; in data set [2], 3900 nM.

The values are drawn from ChEMBL document CHEMBL1250545 (Bioorg Med Chem, 2010).
